Results reported in patent US10974081B2, “Treatment and prevention of sleep disorders” (Purdue Pharma L.P., priority 2016, dated 2021).
In brackets after ≈: the same amount, converted by molar mass. Where two headings read alike, the source gives them in different places.

Key:
[1] = In vivo clearance of radiolabeled Compound (1D), rats; details: within 48 hours of oral dosing
[2] = In vivo renal clearance in humans; design: species or system human; details: for CL renal: male, human, urine
Description: Four healthy male subjects were administered each dose. Table 25 below provides the results in the form of the mean renal clearance, mean total amount excreted unchanged ad Compound (1D), and mean percentage dose excreted unchanged.

[3] = in vivo; details: male, Crl:CD(SD), rat, po, no-observed-adverse-effect-level (NOAEL)
[4] = test system: rats
[5] = test system: rats; details: by suppression of rhythmic firing of SCN neurons; cited from earlier work
[6] = Aqueous solubility at pH about 6.8; type: physicochemical; details: 25 °C, pH 6.8, aqueous buffer, kinetic from dmso stock, single value, procedure not stated; read-out: Solubility at pH 6.8
[7] = in vivo; details: male, Crl, CD(SD), rat, brain homogenate and plasma, iv, 0.5 mg/kg
[8] = Free unbound compound fraction, equilibrium dialysis of rat serum; type: in vitro ADME; details: male, Crl:CD (SD), rat, rat serum; 2 μg/mL, 24 hours dialysis at 37° C.
Description: The extent of in vitro binding of Compound (1F) or W-212393 to rat serum was determined as an assessment of the availability of free unbound compound for modulating receptor activity according to a procedure disclosed in, e.g., Example 15 of U.S. Pat. No. 9,290,488, which is hereby incorporated by reference in its entirety. Serum from rats containing a tested compound in one chamber of a dialysis cell was dialyzed with phosphate buffered saline (“PBS”) in the other chamber; thereafter, the supernatant from each chamber was analyzed for the concentration of the tested compound present. […] The final concentration of each tested compound in the serum sample was adjusted to 2 μg/mL by adding an appropriate volume of PBS. A cell suitable for equilibrium dialysis was used in the determinations. A SPECTRA/POR dialysis membrane (with molecular mass cutoff of 12,000-14,000 Da, Spectrum Laboratories, Inc., Rancho Dominguez, Calif.) separated the dialysis cell into two chambers. A 500 μL aliquot of the serum sample containing a tested compound was applied to one chamber (serum chamber) of the dialysis cell. A 500 μL aliquot of PBS was applied to the other chamber (PBS chamber) of the dialysis cell. The dialysis study was conducted in duplicate for each tested compound. After 24 hours of equilibrium dialysis at 37° C., 30 μL of liquid from the serum chamber of the dialysis cell was collected and to this was added 270 μL of fresh PBS (this combination was designated Sample “A”). Then, 270 μL of liquid from the PBS chamber of the dialysis cell was collected and to this was added 30 μL of control rat serum (i.e., rat serum never exposed to any test compound, this combination was designated Sample “B”). […] Each supernatant was analyzed by LC-MS-MS. […] Thereafter, the percentage of free unbound tested compound was calculated from the ratio of the tested compound amount determined from Sample B divided by the sum of the tested compound amounts determined from Sample A and Sample B.

Structure (SMILES): O=C(O)c1nc2ccccc2n([C@H]2C[C@H]3CCC[C@@H](C2)N3C2CC3CCCC(C3)C2)c1=O (stereo partly drawn) [Compound (1D)]
- Average % Elimination, Fecal ([1]; Rat (female)): 27.9%
- Average % Elimination, Fecal + Urinary ([1]; Rat (female)): 94.7%
- Average % Elimination, Urinary ([1]; Rat (female)): 66.8%
- Average % Elimination, Fecal ([1]; Rat (male)): 41.6%
- Average % Elimination, Fecal + Urinary ([1]; Rat (male)): 96.0%
- Average % Elimination, Urinary ([1]; Rat (male)): 54.4%
- absorption from the gastrointestinal tract ([2]; 3 mg oral dose, aqueous suspension): essentially completely absorbed
- Mean % Dose Excreted Unchanged ([2]; 3.0 mg single oral dose): 89%
- Mean Total Amount Excreted Unchanged ([2]; 3.0 mg single oral dose): 2.66 mg
- Mean % Dose Excreted Unchanged ([2]; 10 mg single oral dose): 70%
- Mean Total Amount Excreted Unchanged ([2]; 10 mg single oral dose): 6.95 mg
- Mean % Dose Excreted Unchanged ([2]; 30 mg single oral dose): 28%
- Mean Total Amount Excreted Unchanged ([2]; 30 mg single oral dose): 8.37 mg
- renal elimination mechanism ([2]; in addition to glomerular filtration): active renal tubular secretion
- CL renal ([2]; 3.0 mg single oral dose): 275 mL/min
- CL renal ([2]; 10 mg single oral dose): 266 mL/min
- CL renal ([2]; 30 mg single oral dose): 270 mL/min
- excretion in human urine ([2]; single oral doses 3, 10, 30 mg): excreted largely unchanged
- NOAEL [3]: 600 mg/kg
- overall sleep effect ([4]; 30 mg/kg/day oral): significant sleep-enhancing effects
- tachyphylaxis over the seven day period ([4]; 30 mg/kg/day oral for 7 days): minimal tachyphylaxis
- percentage of time spent in wakefulness ([4]; 30 mg/kg/day oral, Day 1, 1 hour block at 4 hours after dosing (FIG. 5A)): about 52%
- percentage of time spent in NREM sleep ([4]; 30 mg/kg/day oral, Day 1, 1 hour block at 4 hours after dosing (FIG. 5C)): about 41%
- percentage of time spent in NREM sleep ([4]; 30 mg/kg/day oral, Day 1, 1 hour block at 5 hours after dosing (FIG. 5C)): ~54%
- percentage of time spent in REM sleep ([4]; 30 mg/kg/day oral, Day 1, 1 hour block at 7 hours after dosing (FIG. 5B)): about 2.5%
- total amount of wakefulness ([4]; 30 mg/kg/day oral, Day 1, 3 hour block, 3 to 6 hours after dosing (FIG. 6A)): about 47%
- total amount of NREM sleep ([4]; 30 mg/kg/day oral, Day 1, 3 hour block, 3 to 6 hours after dosing (FIG. 6C)): about 46%
- effect on percentage of time spent in REM sleep ([4]; 30 mg/kg/day oral, Day 1, 3 hour blocks (FIG. 6B)): no significant effects
- effect on percentage of time spent in REM sleep ([4]; 30 mg/kg/day oral, Day 4 (FIG. 7B, 8B)): no significant effects
- total amount of wakefulness ([4]; 30 mg/kg/day oral, Day 4, 3 to 6 hours after dosing (FIG. 8A)): about 55%
- total amount of NREM sleep ([4]; 30 mg/kg/day oral, Day 4, 3 to 6 hours after dosing (FIG. 8C)): about 41%
- percentage of time spent in NREM sleep ([4]; 30 mg/kg/day oral, Day 4, 1 hour block at 4 hours after dosing (FIG. 7C)): about 42%
- effect on percentage of time spent in REM sleep ([4]; 30 mg/kg/day oral, Day 7 (FIG. 9B, 10B)): no significant effects
- percentage of time spent in wakefulness versus vehicle ([4]; 30 mg/kg/day oral, Day 7, lights-out period (FIG. 9A)): decreasing tendency
- percentage of time spent in NREM sleep versus vehicle ([4]; 30 mg/kg/day oral, Day 7, lights-out period (FIG. 9C)): increased tendency
- effect on time spent in REM sleep ([4]; Day 8 (no dosing) after 30 mg/kg/day for 7 days (FIG. 11B)): no effect
- percentage of time spent in wakefulness versus vehicle ([4]; Day 8 (no dosing) after 30 mg/kg/day for 7 days, at 27, 35, and 46 hours (FIG. 11A)): significantly increased
- percentage of time spent in NREM sleep versus vehicle ([4]; Day 8 (no dosing) after 30 mg/kg/day for 7 days, at 27, 35, and 46 hours (FIG. 11C)): significantly decreased

Structure (SMILES): CNC(=O)Cn1c(=O)n(C2CCN([C@@H]3Cc4cccc5cccc3c45)CC2)c2ccccc21 [Compound W-212393]
- effect on circadian body temperature rhythm [5]: induced a phase advance
- solubility at 16 h [6]: 42 µM (≈ 18.5 µg/mL)
- Kp at 0.5 h [7]: 0.5
- fraction unbound at 24 h, 2 μg/mL [8]: < 0.001
